Data reported in patent US8067337B2, “Agricultural chemical composition” (priority 2004, dated 2011).

What was measured:
Type in all cases: in vivo
Rice (Kinmaze) [1] = assay: Rice seedlings at second leaf stage grown in liquid culture medium with various herbicidal compounds and p-(t-butyl)benzoic acid; conditions: herbicidal compound at ppm of Table 3, with or without p-(t-butyl)benzoic acid 3 ppm; after 14 days
Procedure: The test media were prepared by adding, in advance, to a 25% aqueous solution of salts for Murashige & Skoog culture medium (a product by Wako Pure Chemical Industries, Ltd.), various herbicidal compounds indicated in Table 3 and p-(t-butyl)benzoic acid to make up concentrations indicated in Table 3 and a concentration of 3 ppm, respectively. Fifty ml each of the resulting test culture media were dispensed into a 50 ml Erlenmeyer flask to prepare various liquid culture media. Similarly, a liquid culture medium with a herbicidal compound and a benzoic acid compound not added was prepared. Rice (Kinmaze) grown to the second leaf stage in culture soil for raising seedlings was soaked in these culture media, with the root cut off except for a 2 cm-long part thereof, and was grown in a growth chamber (manufactured by SANYO Electric Co., Ltd.) under the conditions of 25° C. with the lighting period of 16 hours, and the dark period of 8 hours to measure the plant length of rice, the length of the root, and the living masses of the above-ground part and the root after 14 days.
Rice was grown in the same manner as in each of Examples 21 to 25, except for not adding a benzoic acid compound to the culture medium. After 14 days, the plant length of rice, the length of the root, and the living masses of the above-ground part and the root were measured.

[2] = test system: rice seeds (variety of Kinmaze); assay: Root length of germinated rice seeds grown on gelled culture medium containing herbicidal compound A1 and a benzoic acid compound; conditions: herbicidal compound A1 0.15 ppm, benzoic acid compound 2 ppm; after 7 days at 25° C.; percentage relative to untreated area
Procedure: Brine-sorted rice seeds (variety of Kinmaze) were soaked in a 0.5% aqueous solution of sodium hypochlorite for 10 minutes followed by washing in running water for 30 minutes and then kept at 30° C. for 36 hours to cause germination for obtaining germinated seeds. Separately, 0.3 part of gellan gum was dissolved in 100 parts of an aqueous solution of salts for Hoagland's No. 2 culture medium (a product by Sigma Co.). 13 Glass vials of 2 cm internal diameter and 5 cm height were each filled with 15 ml of the solution to which 2-[(4,6-dimethoxypyrimidin-2-yl)hydroxymethyl]-6-methoxymethyl-N-difluoromethane-sulfonylanilide (hereinafter referred to as the herbicidal compound A1) and a variety of the benzoic acid compounds indicated in Table 1 were added to make up concentrations of 0.15 ppm and 2 ppm, respectively, and kept standing to cause gelation of the solutions in the glass vial to prepare a culture medium containing the inventive composition (hereinafter referred to as the inventive culture medium). […]
Germinated seeds were grown in the same manner as in Example 1, except for not adding a benzoic acid compound to the inventive culture medium. After seven days, the lengths of the roots were measured.

Rice (Kinmaze) [3] = assay: Rice seedlings at second leaf stage grown in liquid culture medium with herbicidal compound A1 and benzoic acid compounds; conditions: herbicidal compound A1 0.1 ppm, benzoic acid compound 3 or 1 ppm (Table 2); after 14 days
Procedure: The test culture media were prepared by adding, in advance, to a 25% aqueous solution of salts for Murashige & Skoog culture medium (a product of Wako Pure Chemical Industries, Ltd.), the herbicidal compound A1 and various benzoic acid compounds indicated in Table 2 to make up a concentration of 0.1 ppm and the concentrations shown in Table 2, respectively. Fifty ml each of the resulting test culture media were dispensed into a 50 ml Erlenmeyer flask to prepare various liquid culture media. Similarly, the same amount of the 25% aqueous solution of salts for Murashige & Skoog culture medium was added to the above-mentioned flask to prepare a liquid culture medium (hereinafter referred to as the untreated culture medium). Rice (Kinmaze) grown to the second leaf stage in culture soil for raising seedlings was soaked in these culture media, with the root cut off except for a 2 cm-long part thereof, and was grown in a growth chamber under the conditions of 25° C. with the lighting period of 16 hours, and the dark period of 8 hours to measure the plant length of rice, the length of the root and the living masses of the above-ground part and the root after 14 days or, namely, after lapse of 14 cycles.
Rice was grown in the same manner as in Example 14, except for not adding a benzoic acid compound. After 14 days, the plant length of rice, the length of the root, and the living masses of the above-ground part and the root were measured.

Compound	Living mass Above-ground part (Rice (Kinmaze) [1])	Living mass Root (Rice (Kinmaze) [1])	also measured
CCCCOCN(C(=O)CCl)c1c(CC)cccc1CC [compound 5, Butachlor]	0.14 g	0.09 g	
CCN(C(=O)n1nnn(-c2ccccc2Cl)c1=O)C1CCCCC1 [compound 7, Fentrazamide]	0.08 g	0.05 g	Length of root (Rice (Kinmaze) [1]): 2.2 cm; Plant length (Rice (Kinmaze) [1]): 11.6 cm
COCc1cccc(C(O)c2nc(OC)cc(OC)n2)c1NS(=O)(=O)C(F)F (stereo not shown) [Comparative Example 1, 2-[(4,6-dimethoxypyrimidin-2-yl)hydroxymethyl]-6-methoxymethyl-N-difluoromethane-sulfonylanilide]			Length of root (%) [2]: 21%
CCN(CC)C(=O)SCc1ccc(Cl)cc1 [compound 6, Thiobencarb]	0.23 g	0.18 g	
COC(=O)c1ccccc1CS(=O)(=O)NC(=O)Nc1nc(OC)cc(OC)n1 [compound 3, Bensulfuron-methyl]	0.11 g	0.05 g	
COCc1cccc(C(O)c2nc(OC)cc(OC)n2)c1NS(=O)(=O)C(F)F (stereo not shown) [Comparative Example 2, 2-[(4,6-dimethoxypyrimidin-2-yl)hydroxymethyl]-6-methoxymethyl-N-difluoromethane-sulfonylanilide]			Length of root (Rice (Kinmaze) [3]): 2.1 cm; Living mass Above-ground part (Rice (Kinmaze) [3]): 0.16 g; Living mass Root (Rice (Kinmaze) [3]): 0.07 g; Plant length (Rice (Kinmaze) [3]): 15.6 cm
CCOC(=O)c1cnn(C)c1S(=O)(=O)NC(=O)Nc1nc(OC)cc(OC)n1 [compound 4, Pyrazosulfuron-ethyl]	0.07 g	0.04 g	Length of root (Rice (Kinmaze) [1]): 2.0 cm; Plant length (Rice (Kinmaze) [1]): 11.7 cm
